Test results published in US9012403B2, “Peptides as active agents to stabilize biological barriers” (XiberScience GmbH, priority 2010, dated 2015).
Marks after values point to notes of the source that are not given here.

Legend:
Assay type in all cases: cell-based
[1] = system: GTP-bound RhoA; test: GTP-associated active RhoA in Caco-2 membrane fraction (western blot)
Description: (§1) To measure the GTP-associated active RhoA, the following cell lines were used: Caco-2, ECV304 and HpMec. All cells were grown at standard conditions (37° C., 5% CO2 and 95% rH). 4 h before the experiment, cells were starved by serum withdrawal. To induce GEF-activity, cells were stimulated with thrombin, LPS or PMA for the indicated time in presence or absence of 50 μg/ml XIB1-a or XIB1-b. After stimulation, membrane fractions were prepared by using the commercial available “Compartemental Protein Extraction Kit” from Biochain Institutes. Membrane fractions were prepared according to the manufacturer instructions. The membrane fraction was separated on 15% polyacrylamide gel according to standard procedures of gel electrophoresis. The gels were afterwards blotted on a nitrocellulose membrane according to standard procedures of western blotting. GTP-bound RhoA was detected using RhoA-GTP monoclonal antibody from NewEast Inc. in a dilution of 1:5000. Protein bands were analyzed with the Dolphin-1D Gel analysis system (Wealtec).

[2] = system: Phosphorylated Myosin Light Chain (MLC) and actin stress fibers; test: MLC phosphorylation and actin stress fiber formation in ECV304 cells (microscopy score)
Description: To measure MLC phosphorylation and actin stress fiber formation, the following cell lines were used: Caco-2, ECV304 and HpMec. All cells were grown at standard conditions (37° C., 5% CO2 and 95% rH). Culture Medium used: for Caco-2: DMEM+1 mM sodium pyruvate+20% FCS+1% Penicillin Streptomycin; for ECV 304: RPMI 1640+10% FCS+1% Penicillin Streptomycin; and for HpMec: IMDM+25 mM Hepes+10% Human Serum+1% Penicillin Streptomycin+1% L-Glutamine+ECGS/Heparin 2 ml. 4 h before the experiment, cells were starved by serum withdrawal. To induce GEF-activity, cells were stimulated with thrombin, LPS or PMA for the indicated time in presence or absence of 50 μg/ml XIB1-a or XIB1-b. After stimulation, cells were fixed using 4% PFA. Phospho MLC was detected by using the “rabbit anti phosphor-myosin light chain antibody” from Chemicon in a concentration of 3 μl/ml in PBS (Gibco) supplemented with 0.1% Triton X-100. As detection antibody, the Alexa 448 tagged “anti Rabbit IgG Antibody” from Invitrogen was used in a concentration of 0.5 μl/ml in PBS (Gibco) supplemented with 0.1% Triton X-100. Aktin was detected using TRITC-labeled Phalloidin in a concentration of 0.5 μl/ml in PBS (Gibco) supplemented with 0.1% Triton. Stained cells were analyzed by using a Zeiss Laser Scan microscope. Evaluation of the cyto-skeletal activation was performed by 2 independent observers that were blinded to the conditions. Evaluation criteria were set as follows:
Actin: parallel actin bundles absent=0; distinct bundle formation=1; prominent parallel bundles=2; Phospho-MLC: present at cell poles=0; slight co-localization with actin bundles=1; prominent co-localization with actin bundles=2

[3] = system: GTP-bound RhoA; test: GTP-associated active RhoA in ECV304 membrane fraction (western blot)
Description: as §1

[4] = system: GEF; test: GEF-activity in membrane fractions of ECV304 cells (RhoGEF Exchange Assay)
Description: (§2) To measure the GEF-inhibitory effect, the following cell lines were used: Caco-2 (epithelial cells from adeno-carcinoma), ECV304 (epithelial cells from bladder carcinoma) and HpMec (endothelial cells, immortalized pulmonary micro-vascular cells). All cells were grown at standard conditions (37° C., 5% CO2 and 95% relative humidity (rH)). Culture Medium used for Caco-2: DMEM+1 mM sodium pyruvate+20% FCS+1% Penicillin Streptomycin; for ECV 304: RPMI 1640+10% FCS+1% Penicillin Streptomycin; and for HpMec: IMDM+25 mM Hepes+10% Human Serum+1% Penicillin Streptomycin+1% L-Glutamine+ECGS/Heparin 2 ml. 4 h before the experiment, cells were starved by serum withdrawal. To induce GEF-activity, cells were stimulated with thrombin, lipopolysaccharide (LPS) or PMA for the indicated time in presence or absence of 50 μg/ml XIB1-a or XIB1-b. After stimulation, membrane fractions were prepared by using the commercial available “Compartemental Protein Extraction Kit” from Biochain institutes. Membrane fractions were prepared according to the manufacturer instructions. GEF-activity in membrane lysates was determined by using “RhoGEF Exchange Assay Biochem Kit” from Cytoskeleton Inc. according to manufacturer instructions. GEF-activity was measured as fluorescence at using the Fluoroskan Ascent FL 2.6 from Thermo Electron Corporation. The excitation Filter wavelength was set at 355 nm and the emission filter wavelength at 460 nm.

[5] = system: GEF; test: GEF-activity in membrane fractions of Caco-2 cells (RhoGEF Exchange Assay)
Description: as §2

[6] = system: GTP-bound RhoA; test: GTP-associated active RhoA in HpMec membrane fraction (western blot); settings: HpMec
Description: as §1

[7] = CaCo-2, PMA 1 μg/ml, 1 min, with or without peptide 50 μg/ml
[8] = CaCo-2, PMA 1 μg/ml, 5 min, with or without peptide 50 μg/ml
[9] = CaCo-2, no stimulus, 1 min, peptide 50 μg/ml
[10] = CaCo-2, no stimulus, 5 min, peptide 50 μg/ml
[11] = ECV 304, LPS 100 μg/ml, 1 min, with or without peptide 50 μg/ml
[12] = ECV 304, LPS 100 μg/ml, 5 min, with or without peptide 50 μg/ml
[13] = ECV 304, Thrombin 1 U/ml, 1 min, with or without peptide 50 μg/ml
[14] = ECV 304, Thrombin 1 U/ml, 5 min, with or without peptide 50 μg/ml
[15] = ECV 304, no stimulus, 1 min, peptide 50 μg/ml
[16] = ECV 304, no stimulus, 5 min, peptide 50 μg/ml
[17] = Thrombin 1 U/ml, 1 min, with or without peptide 50 μg/ml
[18] = Thrombin 1 U/ml, 5 min, with or without peptide 50 μg/ml
[19] = no stimulus, 1 min, peptide 50 μg/ml
[20] = no stimulus, 5 min, peptide 50 μg/ml

## GRRPGGASGG (/note=“Description of artificial sequence cingulin-derived peptide XIB1-a”)
[1]; [7]
  GTP-bound RhoA, relative values compared to unstimulated control (Mean): 1.4*
[1]; [8]
  GTP-bound RhoA, relative values compared to unstimulated control (Mean): 1.3*
[1]; [9]
  GTP-bound RhoA, relative values compared to unstimulated control (Mean): 1
[1]; [10]
  GTP-bound RhoA, relative values compared to unstimulated control (Mean): 1
[2]; [11]
  MLC phosphorylation and actin stress fiber formation, evaluation score (Mean): 1*
[2]; [12]
  MLC phosphorylation and actin stress fiber formation, evaluation score (Mean): 1*
[2]; [13]
  MLC phosphorylation and actin stress fiber formation, evaluation score (Mean): 1*
[2]; [14]
  MLC phosphorylation and actin stress fiber formation, evaluation score (Mean): 1*
[2]; [15]
  MLC phosphorylation and actin stress fiber formation, evaluation score (Mean): 1
[2]; ECV 304, no stimulus, 1 min, peptide 50 μg/ml, listed as XIB-a
  MLC phosphorylation and actin stress fiber formation, evaluation score (Mean): 0
[3]; [11]
  GTP-bound RhoA, relative values compared to unstimulated control (Mean): 1.6*
[3]; [12]
  GTP-bound RhoA, relative values compared to unstimulated control (Mean): 1.7*
[3]; [13]
  GTP-bound RhoA, relative values compared to unstimulated control (Mean): 2.1*
[3]; [14]
  GTP-bound RhoA, relative values compared to unstimulated control (Mean): 1.9*
[3]; [15]
  GTP-bound RhoA, relative values compared to unstimulated control (Mean): 1
[3]; [16]
  GTP-bound RhoA, relative values compared to unstimulated control (Mean): 1
[4]; [11]
  GEF-activity, relative values compared to unstimulated control (Mean): 1.7*
[4]; [12]
  GEF-activity, relative values compared to unstimulated control (Mean): 1.3*
[4]; [13]
  GEF-activity, relative values compared to unstimulated control (Mean): 2.5*
[4]; [14]
  GEF-activity, relative values compared to unstimulated control (Mean): 1.5*
[4]; [15]
  GEF-activity, relative values compared to unstimulated control (Mean): 1
[4]; [16]
  GEF-activity, relative values compared to unstimulated control (Mean): 1
[5]; [7]
  GEF-activity, relative values compared to unstimulated control (Mean): 1.4*
[5]; [8]
  GEF-activity, relative values compared to unstimulated control (Mean): 1.5
[5]; [9]
  GEF-activity, relative values compared to unstimulated control (Mean): 1
[5]; [10]
  GEF-activity, relative values compared to unstimulated control (Mean): 1
[6]; [17]
  GTP-bound RhoA, relative values compared to unstimulated control (Mean): 2.1*
[6]; [18]
  GTP-bound RhoA, relative values compared to unstimulated control (Mean): 1.3*
[6]; [19]
  GTP-bound RhoA, relative values compared to unstimulated control (Mean): 1
[6]; [20]
  GTP-bound RhoA, relative values compared to unstimulated control (Mean): 1

## GRRPLGGISGG (/note=“Description of artificial sequence cingulin-derived peptide XIB1-b”)
[1]; [7]
  GTP-bound RhoA, relative values compared to unstimulated control (Mean): 1.4*
[1]; [8]
  GTP-bound RhoA, relative values compared to unstimulated control (Mean): 1.3*
[1]; [9]
  GTP-bound RhoA, relative values compared to unstimulated control (Mean): 1
[1]; [10]
  GTP-bound RhoA, relative values compared to unstimulated control (Mean): 1
[2]; [11]
  MLC phosphorylation and actin stress fiber formation, evaluation score (Mean): 1*
[2]; [12]
  MLC phosphorylation and actin stress fiber formation, evaluation score (Mean): 1*
[2]; [13]
  MLC phosphorylation and actin stress fiber formation, evaluation score (Mean): 1*
[2]; [14]
  MLC phosphorylation and actin stress fiber formation, evaluation score (Mean): 1*
[3]; [11]
  GTP-bound RhoA, relative values compared to unstimulated control (Mean): 1.6*
[3]; [12]
  GTP-bound RhoA, relative values compared to unstimulated control (Mean): 1.7*
[3]; [13]
  GTP-bound RhoA, relative values compared to unstimulated control (Mean): 2.1*
[3]; [14]
  GTP-bound RhoA, relative values compared to unstimulated control (Mean): 1.9*
[3]; [15]
  GTP-bound RhoA, relative values compared to unstimulated control (Mean): 1
[3]; [16]
  GTP-bound RhoA, relative values compared to unstimulated control (Mean): 1
[4]; [11]
  GEF-activity, relative values compared to unstimulated control (Mean): 1.7*
[4]; [12]
  GEF-activity, relative values compared to unstimulated control (Mean): 1.3*
[4]; [13]
  GEF-activity, relative values compared to unstimulated control (Mean): 2.5*
[4]; [14]
  GEF-activity, relative values compared to unstimulated control (Mean): 1.5*
[4]; [15]
  GEF-activity, relative values compared to unstimulated control (Mean): 1
[4]; [16]
  GEF-activity, relative values compared to unstimulated control (Mean): 1
[5]; [7]
  GEF-activity, relative values compared to unstimulated control (Mean): 1.4*
[5]; [8]
  GEF-activity, relative values compared to unstimulated control (Mean): 1.5
[5]; [9]
  GEF-activity, relative values compared to unstimulated control (Mean): 1
[5]; [10]
  GEF-activity, relative values compared to unstimulated control (Mean): 1
[6]; [17]
  GTP-bound RhoA, relative values compared to unstimulated control (Mean): 2.1*
[6]; [18]
  GTP-bound RhoA, relative values compared to unstimulated control (Mean): 1.3*
[6]; [19]
  GTP-bound RhoA, relative values compared to unstimulated control (Mean): 1
[6]; [20]
  GTP-bound RhoA, relative values compared to unstimulated control (Mean): 1
